Measurements as given in ChEMBL document CHEMBL1146118, “Design, synthesis and biological evaluations of novel oxindoles as HIV-1 non-nucleoside reverse transcriptase inhibitors. Part I” (Bioorg Med Chem Lett, 2006).

How the values were obtained:
[1] = system: Human immunodeficiency virus 1; experiment: Antiviral activity against HIV1 in HEK293T cells; format: functional, organism-based; conditions: Human immunodeficiency virus 1, HEK-293T
[2] = system: HEK293; experiment: Cytotoxicity against HEK293T cells; format: functional; conditions: Homo sapiens

Row | SMILES | EC50 [1] [µM] | CC50 [2] [µM]
1 | CON(C)C(=O)[C@H]1C[C@]12C(=O)Nc1ccc(Br)cc12 | 0.656 | > 10
2 | CCCCC(=O)[C@H]1C[C@]12C(=O)Nc1ccc(Br)cc12 | 0.62 | > 10
3 | CCOC(=O)[C@H]1C[C@]12C(=O)Nc1ccc(-c3ccccc3)cc12 | 0.126 | > 10
4 | CCCCC1CC12C(=O)Nc1ccc(Br)cc12 (stereo not given) | 0.197 | > 10
5 | COC(=O)CC1CC12C(=O)Nc1ccc(Br)cc12 (stereo not given) | > 10 | > 10
6 | CCOC(=O)[C@H]1[C@@H](CC)[C@]12C(=O)Nc1ccc(Br)cc12 | 1.21 | > 10
7 | CCOC(=O)[C@H]1C[C@]12C(=O)Nc1ccc(Cl)cc12 | 0.059 | > 10
8 | O=C([C@H]1C[C@]12C(=O)Nc1ccc(Br)cc12)N1CCCC1 | 0.191 | > 10
9 | CCOC(=O)[C@H]1C2(CCCC2)[C@]12C(=O)Nc1ccc(Br)cc12 | 1.46 | > 10
10 | CCCNC(=O)[C@H]1C[C@]12C(=O)Nc1ccc(Br)cc12 | > 10 | > 10
11 | CCOC(=O)[C@H]1C[C@]12C(=O)Nc1ccc([N+](=O)[O-])cc12 | 1.03 | > 10
12 | CCOC(=O)[C@H]1C[C@]12C(=O)Nc1ccccc12 | 0.279 | > 10
13 | CCOC(=O)[C@H]1C[C@]12C(=O)Nc1ccc(C#N)cc12 | 0.066 | > 10
14 | CCOC(=O)[C@H]1C[C@]12C(=O)Nc1ccc(-c3cccn3C)cc12 | 0.358 | 8.06
15 | CC(C)OC(=O)[C@H]1C[C@]12C(=O)Nc1ccc(Br)cc12 | 0.059 | > 10
16 | CCOC(=O)[C@H]1C[C@]12C(=O)Nc1ccc(F)cc12 | 0.289 | > 10
17 | CCOC(=O)[C@H]1C[C@]12C(=O)Nc1ccc(Br)cc12 | 0.066 | > 10
18 | CCCCCC#CC1CC12C(=O)Nc1ccc(Br)cc12 (stereo not given) | 0.463 | 6.62
19 | CCOC(=O)/C=C1/C(=O)Nc2ccc(Br)cc21 | 2.28 | > 10
20 | CCOC(=O)[C@H]1C(C)(C)[C@]12C(=O)Nc1ccc(Br)cc12 | 0.015 | > 10
21 | CCOC(=O)[C@H]1C[C@]12C(=O)Nc1cc(Cl)ccc12 | > 10 | > 10
22 | CCOC(=O)[C@@H]1C[C@]12C(=O)Nc1ccc(Br)cc12 | > 10 | > 10
23 | O=C1Nc2ccc(Br)cc2C12CC2COc1ccccc1 (stereo not given) | 5.62 | > 10
24 | CC(C)(C)OC(=O)[C@H]1C[C@]12C(=O)Nc1ccc(Br)cc12 | 0.04 | > 10

Row | SMILES | EC50 [1] [µM] | CC50 [2] [µM]
25 | CCOC(=O)[C@H]1C[C@]12C(S)=Nc1ccc(Br)cc12 | > 10 | > 10
26 | CCOC(=O)[C@H]1C[C@]12C(=O)Nc1ccc(N)cc12 | 2.7 | 1.99
27 | O=C(OCc1ccccc1)[C@H]1C[C@]12C(=O)Nc1ccc(Br)cc12 | 5.58 | > 10
28 | CCOC(=O)[C@H]1C[C@]12C(=O)Nc1c(C)cc(Cl)cc12 | 2.25 | > 10
29 | O=C(O)[C@H]1C[C@]12C(=O)Nc1ccc(Br)cc12 | 7.63 | > 10
30 | CCOC(=O)[C@H]1C[C@]12C(=O)Nc1ccc(OC(F)(F)F)cc12 | 2.23 | > 10
31 | CCOC(=O)[C@H]1C(CC)(CC)[C@]12C(=O)Nc1ccc(Br)cc12 | > 10 | > 10
32 | O=C([C@H]1C[C@]12C(=O)Nc1ccc(Br)cc12)N1CCSC1 | 0.18 | > 10
33 | CCOC(=O)[C@H]1C[C@]12C(=O)Nc1c(Cl)cc(Cl)cc12 | 7.36 | > 10
34 | CCOC(=O)CC1(C)C(=O)Nc2ccc(Br)cc21 (stereo not given) | > 10 | > 10
35 | CCOC(=O)[C@H]1C[C@]12C(=O)Nc1ccc(I)cc12 | 0.486 | > 10
36 | CCOC(=O)[C@H]1C[C@]12C(=O)N(C)c1ccc(Br)cc12 | > 10 | > 10
37 | CCOC(=O)[C@@]1(C)C[C@]12C(=O)Nc1ccc(Br)cc12 | 33.3 | > 10
38 | C=Cc1ccc2c(c1)[C@@]1(C[C@@H]1C(=O)OCC)C(=O)N2 | > 10 | > 10
39 | CCOC(=O)[C@H]1C[C@]12C(=O)Nc1ccc(-c3cccs3)cc12 | 2.65 | 1.94
40 | CCOC(=O)[C@H]1C[C@]12C(=O)Nc1ccc(C)cc12 | 1.09 | > 10
41 | O=C([C@H]1C[C@]12C(=O)Nc1ccc(Br)cc12)N1CCCCC1 | 0.586 | > 10
42 | CCN(CC)C(=O)[C@H]1C[C@]12C(=O)Nc1ccc(Br)cc12 | 1.42 | > 10
43 | CCOC(=O)/C=C1\C(=O)Nc2ccc(Br)cc21 | > 10 | > 10
44 | CCOC(=O)[C@H]1C[C@]12C(=O)Nc1ccc(-c3ccco3)cc12 | 0.608 | 2.19
45 | CCOC(=O)[C@H]1[C@H](CC)[C@]12C(=O)Nc1ccc(Br)cc12 | 0.03 | > 10
46 | CCOC(=O)[C@H]1C[C@]12C(=O)Nc1cccc(Br)c12 | > 10 | > 10
47 | O=C1Nc2ccc(Cl)cc2[C@@](C#CC2CC2)(C(F)(F)F)O1 [EFAVIRENZ] | – | 10
48 | Cc1ccnc2c1NC(=O)c1cccnc1N2C1CC1 [NEVIRAPINE] | 0.05 | > 10
